Measured values taken from patent publication US20260218267A1, “METHODS AND COMPOSITIONS FOR PRODUCTION AND PURIFICATION OF PEPTIDES” (priority 2023, published 2026).

What was measured:
[1] = tested on: grey mold (Botrytis cinerea); test: Disease control assay, tomato plants infected with grey mold; type: in vivo; settings: peptide sprayed 24 h post infection at 0.1 g/l or 0.3 g/l, FIG. 17
Protocol: The peptides were sprayed 24 h post infection at concentration of 0.1 g/l or 0.3 g/l.
Peptide production was performed using the chaotropic agent-free protocol described in Example 8.
A synthetic peptide (MP18913), which mimics the concatemeric sequence with an N-terminus proline (P) and C-terminus aspartate (D), was chemically synthetized and used as a control treatment.
Peptide activity was assessed by a disease control assay using tomato plants infected with grey mold (Botrytis cinerea). Peptides were sprayed 24 h post infection at concentration of 0.1 g/l or 0.3 g/l. Disease control percentage was determined based on convex hull recovery, with a total of 7 plants examined (n=7) upon infection with Botrytis spores at 250 spores/ml.

[2] = general statement on onconase; cited from earlier work

MP18913 (PKKEEMSYMKRD)
Control of tomato grey mold infection, comparison in words [1]: as effective, or slightly more effective, than the chemically synthetized version

B1: Onconase: RNAse first identified in Rana pipiens, about 104 amino acids, used as insoluble carrier polypeptide (protein, UniProt P22069 1-104, looked up)
Protein P-30: QDWLTFQKKHITNTRDVDCDNIMSTNLFHCKDKNTFIYSRPEPVKAICKGIIASKNVLTTSEFYLSDCNVTSRPCKYKLKKSTNKFCVTCENQAPVHFVGVGSC
pI [2]: higher than 9.5
